Test system: Hepatitis B virus
Experiment: Effective concentration against hepatitis B virus
Type: functional, organism-based

- EC50: 130 nM
SMILES: Cc1cn([C@@H]2O[C@H](CO)[C@@H](O)[C@@H]2F)c(=O)[nH]c1=O [5-METHYL-2'-FLUOROARAURACIL]
